US20190054135A1, “PLANT OR MICROORGANISM-DERIVED CAROTENOID-OXYGEN COPOLYMER COMPOSITIONS, METHODS OF IDENTIFYING, QUANTIFYING AND PRODUCING SAME AND USES THEREOF” (Avivagen Inc., priority 2016, published 2019)

Key:
prostate carcinogenesis = settings: rat model of prostate carcinogenesis; cited from earlier work
[1] = solubility as noted during extraction and precipitation; type: physicochemical; settings: pH 12-13
Procedure: Purification and concentration of GA was achieved using chloroform. The chloroform extract contained a complex mixture of substances, including carotenoids and carboxylic acids.
Indeed, addition of hexanes to an ethyl acetate extract of carrot powder #1 yielded a brown precipitate. Redissolving the recovered solid in ethyl acetate and precipitating again with hexanes and repeating the procedure gave a brown solid, which, at ca. 0.7 mg/g, was about 1.4 times the estimated OxPVA level, well within the anticipated range for the GA-based estimate (see Isolated Polymer and Polymer/OxPVA columns in Table 2). A similar ratio (1.6) was found for carrot powder #2, for which the yield of copolymer was around half that of carrot powder #1, in line with the respective relative amounts of GA. Confirmation that the isolated solid is largely composed of carotenoid-oxygen copolymer products was provided by comparison of elemental composition, IR, UV-Vis, GPC and GC-MS thermal decomposition data with the corresponding data for the OxBC polymer.

solubility in water [1] | Compound | inhibition of prostate carcinogenesis (prostate carcinogenesis)
 | CC(C)=CCC/C(C)=C/C=C/C(C)=C/C=C/C(C)=C/C=C/C=C(C)/C=C/C=C(C)/C=C/C=C(\C)CCC=C(C)C [lycopene] | not lycopene alone inhibited carcinogenesis
soluble in water | CC(=O)CCCC(C)(C)C(=O)O [GA, geronic acid] | 
